Structures can show the parent of a compound that is named as a salt. Where two headings read alike, the source gives them in different places.

Holding throughout (format): cell-based
In assay [1] the target is T1, hP2X (Homo sapiens, UniProt P51575).
T1 construct: expressed in transfected cells; host or cells: Xenopus oocytes injected with in vitro transcribed RNA
T1 sequence (P51575 1-399): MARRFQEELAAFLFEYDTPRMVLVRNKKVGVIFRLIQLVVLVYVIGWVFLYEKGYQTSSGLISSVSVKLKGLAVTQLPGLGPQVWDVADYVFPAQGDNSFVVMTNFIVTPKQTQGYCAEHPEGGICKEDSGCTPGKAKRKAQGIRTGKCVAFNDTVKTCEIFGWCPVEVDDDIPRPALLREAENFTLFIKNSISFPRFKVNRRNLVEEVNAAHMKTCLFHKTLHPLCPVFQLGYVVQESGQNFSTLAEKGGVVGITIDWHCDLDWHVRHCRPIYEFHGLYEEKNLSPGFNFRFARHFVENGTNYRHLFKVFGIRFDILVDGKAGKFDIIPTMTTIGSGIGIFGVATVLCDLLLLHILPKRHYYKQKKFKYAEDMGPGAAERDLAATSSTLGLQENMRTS
In words: inward currents evoked by purinoceptor agonists in Xenopus oocytes expressing hP2X. The settings on record: for relative potency: relative to ATP, from EEC50; for full agonist activity: concentration-response curves; for Emax at 100 µM: read-out: small inward current, % of the response to 100 μM ATP; for Emax: read-out: maximal response, % of the maximal ATP response. On the procedure: (§1) Human urinary bladder P2X cDNA, subcloned into the pBKCMV expression vector, was linearized with Notl, and transcribed in vitro with T3 polymerase in the presence of cap analogue m7G(5')ppp(5')G. Defolliculated Xenopus oocytes (Bertrand et al, Electrophysiology of neuronal nicotinic acetylcholine receptors expressed in Xenopus oocytes following nuclear injection of genes or cDNAs Meth Neurosci 4: 174-193 (1991)) were injected with 50 ng of human P2X in vitro transcribed RNA, and incubated at 18° C. for 2-6 days in the ND96 solution (mM): NaCl96, KCl2, MgCl2 1, CaCl2 2, sodium pyruvate 5, HEPES 5, ph 7.6-7.5, penicillin (10 U/ml), and streptomycin (10 μg/ml).
Oocytes were placed in a 1 ml chamber and superfused at 2-3 ml/min with ND96 solution with 0.1 mM BaCl2 replacing the 2 mM CaCl2 to prevent activation of endogenous calcium-activated chloride currents (Barish, A transient calcium-dependent chloride current in the immature Xenopus oocytes J Physiol 342: 309-325 (1983)). Currents were measured using a two-electrode voltage-clamp amplifier (Geneclamp Axon Instruments)at a holding potential of -60 mV. Microelectrodes were filled with 3 M KCl (0.5-2 M.OMEGA.). Data were collected using PClamp software (Axon Instruments). […] Antagonists were applied both in the superfusate and together with ATP in the U-tube solution.
Concentration response curves for purinoceptor agonists were fitted with a Hill slope of 1. […] Data are presented throughout as mean ± SEM for a given number of oocytes.

The target of assay [2] is T1, hP2X. The assay can be described thus: antagonist inhibition of ATP-evoked currents in Xenopus oocytes expressing hP2X. The settings on record: for inhibition of inward currents evoked by 10 μM ATP: 10 μM ATP (approximately EC90); for reversibility of antagonism on washout: PPADS, P5P. Here is the method:
as §1
Oocytes were placed in a 1 ml chamber and superfused at 2-3 ml/min with ND96 solution with 0.1 mM BaCl2 replacing the 2 mM CaCl2 to prevent activation of endogenous calcium-activated chloride currents (Barish, A transient calcium-dependent chloride current in the immature Xenopus oocytes J Physiol 342: 309-325 (1983)). Currents were measured using a two-electrode voltage-clamp amplifier (Geneclamp Axon Instruments)at a holding potential of -60 mV. Microelectrodes were filled with 3 M KCl (0.5-2 M.OMEGA.). Data were collected using PClamp software (Axon Instruments). ATP and other purinoceptor agonists were applied by a U-tube perfusion system (Fenwick et al, A patch clamp study of bovine chromaffin cells and their sensitivity to acetylcholine J Physiol 331: 577-597 (1982)) placed close (200-500 μm) to the oocyte. […] Concentration response relationships to ATP and its analogs were determined by measuring the peak amplitude of responses to a 5 s application of agonist applied at 10 min intervals. Responses to agonists were normalized in each oocyte to the peak response evoked by 100 μM ATP; 100 μM ATP was usually applied at the beginning and at the end of an experiment to determine if there was any rundown of the response. […] Antagonists were applied both in the superfusate and together with ATP in the U-tube solution. Antagonists were superfused for 5-10 min prior to the application of ATP.
Concentration response curves for purinoceptor agonists were fitted with a Hill slope of 1. Equi-effective concentrations i.e. concentration of agonist, giving 50% of the response to 100 μM ATP, (EEC50) were determined from individual concentration response curves. […] Data are presented throughout as mean ± SEM for a given number of oocytes.

In assay [3] the target is T2, rat superior cervical ganglion P2X receptor (clone 3) (Rattus norvegicus, UniProt P51577).
T2 construct: The insert appeared to be a full length cDNA; expressed in transfected cells; host or cells: HEK293 cells transfected with pcDNA3 construct p464 (also oocytes injected with in vitro transcribed RNA)
T2 sequence (P51577 1-388): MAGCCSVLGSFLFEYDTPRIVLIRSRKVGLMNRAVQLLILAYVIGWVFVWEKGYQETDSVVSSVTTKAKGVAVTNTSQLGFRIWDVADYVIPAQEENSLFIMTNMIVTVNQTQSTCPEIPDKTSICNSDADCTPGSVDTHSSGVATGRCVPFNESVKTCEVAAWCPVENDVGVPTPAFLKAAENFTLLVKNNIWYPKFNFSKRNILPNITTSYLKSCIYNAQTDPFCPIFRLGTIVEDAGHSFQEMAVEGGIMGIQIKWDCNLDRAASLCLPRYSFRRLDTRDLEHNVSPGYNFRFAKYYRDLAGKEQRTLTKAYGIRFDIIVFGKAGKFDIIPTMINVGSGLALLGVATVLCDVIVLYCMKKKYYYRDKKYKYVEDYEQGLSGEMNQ
In words: functional properties of cloned P2X receptors (electrical recordings): clone 3. The settings on record: for antagonist profile, clone 3 (block): Table A, concentration not given; for sensitivity of ATP-activated currents to antagonism, compared with rat vas deferens/human bladder and PC12 forms: clone 3 (FIG. 15). Here is the method:
HEK 293 cells were transfected by the lipofectin method (Felgner et al., Proc. Nat'l. Acad. Sci. USA 84 7413-7417 (1987)) with P2X -plasmid. DNA concentration used was 1 mg/2 ml medium placed into a 35 mm petri dish containing four 11 mm diameter coverslips on which HEK cells were placed at 10,000 cells per coverslip. […] Currents were recorded from HEK 293 cells using whole-cell recording methods and the AXOPATCH™ 200 amplifier (Axon Instruments); patch pipettes (5 M.OMEGA.) contained (mM) Cs or K aspartate 140, NaCl 5, EGTA 11, HEPES 5. The external solution was (mM) NaCl 150, KCl2, CaCl2 2, MgCl2 1, HEPES 5 and glucose 11; the pH and osmolarity of both solutions were maintained at 7.3 and 305 mosmol/l respectively. All recordings performed at room temperature. Data acquisition and analysis were performed using pCLAMP™ and AXOGRAPH™ software (Axon Instruments). […] The pH and osmolarity of the solutions were 7.4 and 295 mosmol/l respectively. For single channel measurements, a […]™ 500 amplifier and outside-out recording methods were used (Adelman et al., Neuron 9 209-216 (1992)). Wax-coated patch pipettes (5-10 M.OMEGA.) contained (mM) K-gluconate 115, HEPES 5, BAPTA 5 and MgCl2 0.5, external solution was 96 mM NaCl, 2 mM KCl, 1.8 mM CaCl2, 1 mM MgCl2, 5 mM Hepes pH 7.6, and 5 mM sodium pyruvate.
The functional characterisation of the clone illustrated in FIG. 2 (referred to herein as clone 3) was carried out by electrical recordings from transfected HEK293 cells and from oocytes injected with the in vitro transcribed RNA, as described in Example 4 for the rat vas deferens P2X receptor. Table A summarizes the main properties of clone 3 as compared to those of rat vas/human bladder cDNA clone, and the PC12 cDNA clone (provided by David Julius and Tony Brake of the University of California at San Francisco).

Consider “2'-3'-O-(4-benzoylbenzol)ATP tetraethylamonium salt [BzATP]”, for which, on hP2X [1], the “maximal response, % of the maximal ATP response” value is recorded as “about 65%” and the relative potency is given as 0.20. For the same molecule, on hP2X [1] (read-out: EEC50: equieffective concentration producing an inward current equivalent to 50% of the peak response to 100 μM ATP, Hill slope of 1, mean ± SEM, n = 3-4, ATP value from mean data from all experiments), the EC50 was found to be 4.2 ± 2.2 µM.
For `Nc1nc(Cl)nc2c1ncn2[C@@H]1O[C@H](COP(=O)(O)OP(=O)(O)OP(=O)(O)O)[C@@H](O)[C@H]1O` [2chloroATP, 2-chloro-ATP tetra sodium salt], at hP2X [1], the EC50 is 0.76 ± 0.1 µM, the full agonist activity entry is given as “full agonists” and the relative potency came out at 1.08. Moreover, the “comparison of concentration-effect curves” value on hP2X [1] (ATP, 2MeSATP and 2-chloro-ATP) is listed as “superimposable”.
`Nc1ncnc2c1ncn2[C@@H]1O[C@H](COP(=O)([O-])OP(=O)([O-])[O-])[C@@H](O)[C@H]1O.[Na+].[Na+].[Na+]` [ADP, adenosine 5'-diphosphate sodium salt]: on hP2X [1], the EC50 came out at 34.3 ± 16 µM, the full agonist activity result is on record as “full agonists” and the relative potency is 0.024.
In the case of `Nc1ncnc2c1ncn2[C@@H]1O[C@H](COP(=O)(O)O)[C@@H](O)[C@H]1O` [AMP, adenosine 5'-monophosphate sodium salt], the Emax at 100 µM at hP2X [1] turned out to be 6.08 ± 2%.
Take `Nc1ncnc2c1ncn2[C@@H]1O[C@H](COP(=O)(O)OP(=O)(O)OP(=O)(O)OP(=O)(O)OP(=O)(O)OC[C@H]2O[C@@H](n3cnc4c(N)ncnc43)[C@H](O)[C@@H]2O)[C@@H](O)[C@H]1O` [AP5A, p1, p5-di [adenosine-5'] pentaphosphate trilithium salt]: on hP2X [1], the EC50 is 2 ± 0.2 µM, the Emax is around 65% and the relative potency amounted to 0.41.
On to `Nc1ncnc2c1ncn2[C@@H]1O[C@H](COP(=O)(O)OP(=O)(O)OP(O)(O)=S)[C@@H](O)[C@H]1O` [ATP-γ-S, adenosine 5'-O-(-3-thiophosphate) tetralithium salt], for which, at hP2X [1], the EC50 was 10.6 ± 3.8 µM, the Emax was around 65% and the relative potency is on record as 0.077.
With `Nc1ncnc2c1ncn2[C@@H]1O[C@H](CO)[C@@H](O)[C@H]1O` [Adenosine], the Emax at 100 µM on hP2X [1] was determined as 2.3 ± 1.5%.
In general, IC50 refers to the concentration that gives 50% inhibition. Low readings indicate higher potency, high ones lower potency. `Cc1ncc(COP(=O)(O)O)c(C=O)c1O` [P5 P, Pyridoxal 5-phosphate monohydrate]: at hP2X [2], the IC50 is around 20 µM, the “inhibition of inward currents evoked by 10 μM ATP” value is given as “inhibited inward currents evoked by 10 μM ATP” and the “reversibility of antagonism on washout” value is on record as “readily reversible on washout”. In assay [3], the “antagonist profile, clone 3 (block)” value is listed as below 40%; the “sensitivity of ATP-activated currents to antagonism, compared with rat vas deferens/human bladder and PC12 forms” value was “much less sensitive to antagonism”.
The like results for `Cc1nc(N=Nc2ccc(S(=O)(=O)O)cc2S(=O)(=O)O)c(COP(=O)(O)O)c(C=O)c1O` [PPADS, pyridoxal phosphate 6-azophenyl 2',4'-disulphonic acid] were, in that order, around 1 µM, “inhibited inward currents evoked by 10 μM ATP”, “readily reversible on washout”, below 30% and “much less sensitive to antagonism”.
As to `O=c1ccn([C@@H]2O[C@H](COP(=O)(O)OP(=O)(O)OP(=O)(O)O)[C@@H](O)[C@H]2O)c(=O)[nH]1` [UTP, uridine 5'-triphosphate sodium salt], the Emax at 100 µM at hP2X [1] worked out at 3.7 ± 1.8%.
For `Nc1ncnc2c1ncn2[C@@H]1O[C@H](COP(=O)(O)OP(=O)(O)CP(=O)(O)O)[C@@H](O)[C@H]1O` [d,β,γ-meATP, β,γ-methylene-D-ATP sodium salt], at hP2X [1], the EC50 came to 24.1 ± 1.6 µM and the relative potency came out at 0.034.

The values are drawn from patent US5985603A, “P2x receptor DNA and protein sequence” (Glaxo Group Limited, priority 1994, dated 1999).
